Measured values taken from US20120219615A1, “Therapeutic Use of a TLR Agonist and Combination Therapy” (The Trustees of the University of Pennsylvania, priority 2010, published 2012).

Target: T1, TLR7 (Homo sapiens, UniProt Q9NYK1)
T1 construct: expressed in transfected cells; host or cells: HEK293
T1 sequence (Q9NYK1 27-1049): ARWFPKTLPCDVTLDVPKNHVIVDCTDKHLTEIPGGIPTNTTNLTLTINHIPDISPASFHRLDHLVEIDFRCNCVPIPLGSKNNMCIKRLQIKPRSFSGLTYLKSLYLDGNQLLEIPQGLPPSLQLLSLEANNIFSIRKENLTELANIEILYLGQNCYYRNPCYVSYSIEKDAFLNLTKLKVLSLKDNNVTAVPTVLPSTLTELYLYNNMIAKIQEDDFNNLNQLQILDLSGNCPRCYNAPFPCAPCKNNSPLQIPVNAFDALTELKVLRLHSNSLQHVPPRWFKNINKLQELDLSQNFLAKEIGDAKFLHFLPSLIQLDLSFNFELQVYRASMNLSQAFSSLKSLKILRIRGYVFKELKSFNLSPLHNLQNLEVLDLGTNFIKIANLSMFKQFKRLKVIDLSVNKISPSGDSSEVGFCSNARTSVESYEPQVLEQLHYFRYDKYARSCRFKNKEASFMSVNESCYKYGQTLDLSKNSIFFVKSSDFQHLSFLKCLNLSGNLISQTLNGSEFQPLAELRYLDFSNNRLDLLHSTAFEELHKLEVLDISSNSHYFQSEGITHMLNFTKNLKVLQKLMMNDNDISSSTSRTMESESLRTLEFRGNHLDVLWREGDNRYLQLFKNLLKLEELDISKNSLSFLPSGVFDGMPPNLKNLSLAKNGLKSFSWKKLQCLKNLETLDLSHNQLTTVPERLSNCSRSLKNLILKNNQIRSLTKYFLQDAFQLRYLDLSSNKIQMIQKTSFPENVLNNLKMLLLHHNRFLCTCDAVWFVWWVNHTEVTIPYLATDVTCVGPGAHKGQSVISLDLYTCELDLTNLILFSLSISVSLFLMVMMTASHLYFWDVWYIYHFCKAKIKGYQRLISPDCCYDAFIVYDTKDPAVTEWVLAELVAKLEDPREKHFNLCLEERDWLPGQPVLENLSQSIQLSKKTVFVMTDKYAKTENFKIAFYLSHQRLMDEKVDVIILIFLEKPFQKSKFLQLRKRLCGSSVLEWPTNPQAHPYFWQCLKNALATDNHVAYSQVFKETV
Assay: HEK293 cells transfected with TLR7 and NF-κB driven reporter gene
Type: cell-based
Details: HEK293 transfectants
Method: The half-maximal effective concentration (EC50) for VTX-2337 activation of TLR8 and TLR7 was assessed in peripheral blood mononuclear cells (PBMCs) from 15 healthy donors and also in HEK293 cells transfected with TLR8 or TLR7 and an NF-κB driven reporter gene. […] Also it was observed that VTX-2337 had no activity on TLR2, TLR3, TLR4, TLR5, TLR6, or TLR9 at concentrations up to 25 μM.

CCCN(CCC)C(=O)C1=Cc2ccc(-c3ccc(C(=O)N4CCCC4)cc3)cc2N=C(N)C1 [VTX-2337, 2-amino-N,N-dipropyl-8-(4-(pyrrolidine-1-carbonyl)phenyl)-3H-benzo[b]azepine-4-carboxamide]
EC50: 2 µM
